Blank lines part the entries; values can stand above or below the compound they belong to.
Assays:
A375 cells = test: A375 Cellular Proliferation Assay (A375 CP); assay type: cell-based; conditions: Homo sapiens, A-375, 48 h; A375-luc cells, 2 days
Procedure: A375-luc cells engineered to express luciferase are plated to 384-well white clear bottom plates as 1,500 cells/50 μl/well in DMEM containing 10% FBS. Compounds of the invention dissolved in 100% DMSO at appropriate concentrations are transferred to the cells by a robotic Pin Tool (100 nl). The cells are incubated for 2 days at […], then 25 μl of BrightGlo™ is added to each well and the plates are read by luminescence. The concentration of each compound for 50% inhibition (IC50) was calculated by non-linear regression using XL Fit data analysis software.

p38α MAP Kinase = test: A549 p38α MAP Kinase Bright-Glo Reporter Gene Assay; assay type: cell-based; conditions: ratio of p38 RGA IC50 to A375 CP IC50
Procedure: A549 cells were stably-transfected with the IL-8 promoter driven reporter, pGL3-IL8-Luc. The cells were plated at 4×10^5/ml into 384-well solid white plates (40 ul/well, 5% CD-FBS, 1×P/S, DMEM) and were incubated overnight (18-20 hours) at 37° C. Test compounds were serially diluted in DMSO, then 50 nl of test solution was added to the incubation (final DMSO concentration of 0.1%). After incubating with test compound for 30 min, cells were stimulated with 1 ng/ml IL-1 beta (10 ul of 5 ng/ml solution per well). Bright-Glo (25 ul/well) was added to measure luciferase expression after 7-8 hours of stimulation.

[1] = In Vivo Pharmacokinetics Assay; design: species or system mouse; conditions: oral dose of 10 mg/kg
Procedure: (§1) Full pharmacokinetics study: Male Balb/c mice (n=3, body weights 22-25 g) or male Wistar rats (n=3, body weights 250-300 g) were administered the test compound intravenously via the lateral tail vein or orally via gavage. The formulation was typically a 2.5 mg/mL solution of the compound in 75% PEG300 and 25% D5W. Six blood samples of 50 μL each were collected serially for 24 h after dosing. The blood samples were centrifuged to separate the plasma. Plasma samples were analyzed and quantified by LC-MS/MS.
as §1, with “Rapid” for “Full”, “intravenously (IV)” for “intravenously”, “orally (PO)” for “orally”, “The blood samples were centrifuged to separate the plasma.” left out
For both full and rapid pharmacokinetics studies, the following parameters were calculated by non-compartmental regression analysis using Winnonlin 5.0 software (Pharsight, Mountain View, Calif., USA): plasma clearance (Cl), plasma maximum concentration (Cmax), plasma area-under-the-concentration-time-curve (AUC0-inf), and percent oral bioavailability (F %).

SW620 cells = test: SW620 Cell Viability Assay (Cell Titer Glo); assay type: cell-based; conditions: 9 serial dilutions between 10 and 0.002 μM, FIG. 1
Procedure: SW620 cells were seeded in 1640 RPMI+10% FBS at a density of 1500 cells per 96-well in black walled, clear bottom tissue culture treated plates. Test compounds were serially diluted in DMSO then added to the cells (final DMSO concentration of 0.1%) and incubated at 37° C. and 5% CO2 for 4 days. To measure cell viability, cell plates were brought to room temperature, culture media was removed, and 200 μl of Cell Titer-Glo reagent (Promega, kit components mixed as per the manufacturer's protocol then diluted 1:2 with growth media) was added to each well. Plates were shaken for 5 minutes, then incubated at room temperature for 5 minutes, and the luminescence was measured (Trilux, Perkin Elmer).

- IC50 (A375 cells): > 20 µM
Structure (SMILES): COC(=O)N[C@@H](C)CNc1nccc(-c2cn(C(C)C)nc2-c2cc(NS(C)(=O)=O)c(C)c(OC)c2)n1 [Compound 27]

Structure (SMILES): CNc1nccc(-c2cn(C(C)C)nc2-c2cc(Cl)cc(NS(C)(=O)=O)c2F)n1 [Compound 29, N-(5-chloro-2-fluoro-3-{4-[2-(methylamino)pyrimidin-4-yl]-1-(propan-2-yl)-1H-pyrazol-3-yl}phenyl)methanesulfonamide]
- (p38 RGA)/(A375) ratio (p38α MAP Kinase): 220

- AUC (total drug exposure) [1]: 30 ± 4 µM·h
Structure (SMILES): COC(=O)N[C@@H](C)CNc1nccc(-c2cn(C(C)C)nc2-c2cc(Cl)cc(NS(C)(=O)=O)c2F)n1 [Compound 9, Methyl N-[(2S)-1-({4-[3-(5-chloro-2-fluoro-3-methanesulfonamidophenyl)-1-(propan-2-yl)-1H-pyrazol-4-yl]pyrimidin-2-yl}amino)propan-2-yl]carbamate]
- Effect on cellular proliferation (SW620 cells): induction in cellular proliferation

Structure (SMILES): COC(=O)NC[C@H](C)Nc1nccc(-c2cn(C(C)C)nc2-c2cc(Cl)cc(NS(C)(=O)=O)c2F)n1 [Compound 32, Methyl N-[(2S)-2-({4-[3-(5-chloro-2-fluoro-3-methanesulfonamidophenyl)-1-(propan-2-yl)-1H-pyrazol-4-yl]pyrimidin-2-yl}amino)propyl]carbamate]
- (p38 RGA)/(A375) ratio (p38α MAP Kinase): 91

From patent US9593100B2, “Compounds and compositions as protein kinase inhibitors” (Array BioPharma, Inc., priority 2009, dated 2017)
